In PubChem BioAssay (NCI):
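These data come from cells grown in 96-well plates and exposed to compound for 48 hours at five concentrations. At the TGI there is no net growth.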

Experiments:
Experiment in all cases: DTP human tumour cell line panel, 48 h
[1] = system: KM12 colon
[2] = system: UO-31 renal
[3] = system: MDA-N
[4] = system: 786-0 renal
[5] = system: HCC-2998 colon
[6] = system: NCI-H460 lung
[7] = system: SNB-75 CNS
[8] = system: SF-295 CNS
[9] = system: HCT-116 colon
[10] = system: RPMI-8226 leukemia
[11] = system: HOP-92 NSCLC
[12] = system: MCF7 breast
[13] = system: NCI-H226 lung
[14] = system: MOLT-4 leukemia
[15] = system: COLO 205 colon
[16] = system: K-562 leukemia
[17] = system: IGROV1 ovarian
[18] = system: M14 melanoma
[19] = system: DU-145 prostate
[20] = system: HL-60(TB) leukemia
[21] = system: SK-MEL-2 melanoma
[22] = system: SK-MEL-28 melanoma
[23] = system: SK-MEL-5 melanoma
[24] = system: NCI-H23 lung
[25] = system: SF-268 CNS
[26] = system: SW-620 colon
[27] = system: A549 NSCLC
[28] = system: CAKI-1 renal
[29] = system: EKVX NSCLC
[30] = system: OVCAR-5 ovarian
[31] = system: NCI-H522 lung
[32] = system: BT-549 breast
[33] = system: HOP-62 NSCLC
[34] = system: PC-3 prostate
[35] = system: CCRF-CEM leukemia
[36] = system: MALME-3M melanoma
[37] = system: U251 CNS
[38] = system: UACC-62 melanoma
[39] = system: HT29 colon
[40] = system: TK-10 renal
[41] = system: OVCAR-3 ovarian
[42] = system: OVCAR-4 ovarian
[43] = system: SF-539 CNS
[44] = system: SR leukemia
[45] = system: OVCAR-8 ovarian
[46] = system: ACHN renal
[47] = system: HCT-15 colon
[48] = system: RXF 393 renal
[49] = system: SK-OV-3 ovarian
[50] = system: UACC-257 melanoma
[51] = system: SNB-19 CNS
[52] = system: NCI/ADR-RES ovarian
[53] = system: SN12C renal

Measured: TGI

N#C/C(=C\c1cc(Br)c(O)c(Br)c1)c1ccccn1
68.3 µM: [36]
> 100 µM: [1] | [2] | [3] | [4] | [5] | [6] | [7] | [8] | [9] | [10] | [12] | [13] | [14] | [15] | [16] | [17] | [18] | [19] | [20] | [21] | [22] | [23] | [24] | [25] | [26] | [27] | [28] | [29] | [30] | [31] | [32] | [33] | [34] | [35] | [38] | [39] | [40] | [41] | [42] | [43] | [44] | [45] | [46] | [47] | [48] | [49] | [50] | [51] | [52] | [53]
46.2 µM: [11]
60 µM: [37]
